Here are results for three compounds from US20170136140A1, “Antimicrobial Compositions Utilizing Silver and Oxygen, Process for Making, and Method of Using the Same” (Avent, Inc., priority 2014, published 2017).

Read-outs that look alike come from different tables or passages of the source.

One series concerns human fibroblasts. Particulars: cited from earlier work.
The test system of series [1] is Methicillin-resistant Staphylococcus aureus—MRSA (Clinical isolate). Kind of series: Antimicrobial challenge test (time-kill) in 95% TSB, concentrated media and silver. Format: cell-based. Particulars: throughout the duration of the testing (3 and 6 hours), 100% oxygen headspace, no silver.
Experimental: In the first sample, 10 ml of 95% tryptic soy broth (TSB) was inoculated with approximately 10^5 CFU of Methicillin-resistant Staphylococcus aureus—MRSA (Clinical isolate). […] Each test sample was then incubated at 37° C.; the level of surviving organisms was tested after 3 hours and 6 hours for each.
The challenge organism (MRSA Clinical isolate) was prepared by culturing in Soybean-Casein digest broth (TSB) at 35° C. for 18 to 24 hrs to an approximate concentration of 1.8×10^9 CFU per ml. • 2. For the challenge tests: 0.01 ml of the stock culture was added into a 50 ml screw top test tube and then diluted to 10 ml with 95% TSB broth to a final concentration of 1.8×10^6 CFU/ml. • 3. […] Silver Challenge test: To a test tube prepared as described from step 2; 100 μl of 30% wt/wt AgNO3 was added and vortexed to mix for a final concentration of 0.3% AgNO3. • b. Silver+O2 challenge test: To a test tube prepared as described from step 2; 100 μl of 30% wt/wt AgNO3 solution was added and vortexed to mix for a final concentration of 0.3% AgNO3. […] The samples were then incubated at 37° C. for both 3 and 6 hours. • d. At the 3 and 6 hour time point the samples were plated at different dilutions (10^−1, 10^−3, and 10^−5) to enumerate the surviving colonies. • i. The 3 hour samples was re-purged with 02 gas and returned to the incubating oven for an additional 3 hours. • ii. […]
Series [2] has as its system Pseudomonas aeruginosa (ATCC 9027). The series is classed as cell-based. To be noted: 37° C., 0.03 ppm silver (from silver nitrate), 5% TSB, based on time zero plate count.
Experimental: Each test sample was then incubated at 37° C.; the level of surviving organisms was tested after 3 hours and 6 hours for each.
The challenge organism (Pseudomonas aeruginosa ATCC 9027) was prepared by culturing in Soybean-Casein digest broth (TSB) at 35° C. for 18 to 24 hrs to an approximate concentration of 1.8×10^8 CFU per ml. • 2. For the challenge tests: 0.01 ml of the stock culture was added into a 50 ml screw top test tube and then diluted to 10 ml with 5% TSB broth to a final concentration of 1.8×10^5 CFU/ml. • 3. […] Silver Challenge test: To a test tube prepared as described from step 2; 100 μl of 3 ppm AgNO3 was added and vortexed to mix for a final concentration of 0.03 ppm AgNO3. • b. Silver+O2 challenge test: To a test tube prepared as described from step 2; 100 μl of 3 ppm Ag+ (from AgNO3) solution was added and vortexed to mix for a final concentration of 0.03 ppm AgNO3. […] The samples were then incubated at 37° C. for both 3 and 6 hours. • d. At the 3 and 6 hour time point the samples were plated at different dilutions (10^−1, 10^−3, and 10^−5) to enumerate the surviving colonies. • i. The 3 hour samples were re-purged with 02 gas and returned to the incubating oven for an additional 3 hours. • ii. The media used for plating was Trypticase soy agar (TSA). • e. The plates were incubated for 2 to 3 days before counting. • f. […]

In the case of `[Ag+]` [Ionic silver], the “concentration cytotoxic to human fibroblasts” value in the series with human fibroblasts was 1 parts per million. As to `O=O` [Sample 4, oxygen gas], the “change in the amount of colony forming units” value in series [1] is “increase”. With silver nitrate [Sample 1], the “log reduction in the number of CFU” value in series [2] (after 3 hours) was determined as 2 log; in series [2] (after 6 hours) it was 3 log.
